Source: patent publication US9139577B2, “Sulfoximine substituted quinazolines for pharmaceutical compositions” (Boehringer Ingelheim International GmbH, priority 2013, dated 2015)

Biological target: MNK2a (Homo sapiens (Human), UniProt Q9HBH9)
Assay: MNK2a in vitro kinase assay (Assay 2), ADP-Glo
Type: biochemical
Settings: read-out: MNK2 IC50
Procedure: B. MNK2a In vitro Kinase Assay (Assay 2)
ASSAY SETUP: The inhibition of kinase activity of MNK2a was assessed using pre-activated GST-MNK2a. The white, 384-well OptiPlate F plates were purchased from PerkinElmer. The ADP-Glo Kinase Assay (including ultra pure ATP) was purchased from Promega (V9103). Activated MNK2a was obtained as described in WO2011/104340. […] ID No. 5 of WO 2011/104340 by the C-terminal —CONH2 group, was purchased from Thermo Fisher Scientific. All other materials were of highest grade commercially available. Compounds are tested in either serial dilutions or single dose concentrations. The compound stock solutions are 10 mM in 100% DMSO The serial compound dilutions are prepared in 100% DMSO followed by 1:27.3 intermediate dilution in assay buffer. The final DMSO concentration in assay will be <3%. In the 384-well plates 3 μl of test compound from the intermediate dilution is mixed with 4 μl of the activated MNK2 enzyme (final concentration of 10 nM) and 4 μl of the peptide (final concentration of 25 μM)/ultra pure ATP (final concentration of 20 μM), all dissolved in assay buffer. This step is followed by an incubation time of 90 min, then 10 μl of ADP Glo reagent are added, followed by 40 min of incubation. Then 20 μl of kinase detection reagent are admixed. The plates are sealed and after an incubation period of 30 min, the luminescence signal is measured in an Envision reader to determine the amount of produced ADP. All incubation steps are performed at room temperature. The assay buffer consists of 20 mM HEPES, 2 mM DTT, 0.01% BSA, 20 mM MgCl2 and 0.1% Pluronic F-127.
The luminescent signal generated is proportional to the ADP concentration produced and is correlated with activated MNK2 activity. The analysis of the data is performed by the calculation of the percentage of ATP consumption of activated MNK2 in the presence of the test compound compared to the consumption of ATP in the presence of activated MNK2 without compound. (RLU(sample)−RLU(low control))*100/(RLU(high value)−RLU(low control)) [RLU=relative luminescence units]
[…] values based on dose response curves are calculated with the AssayExplorer software.

Chain of MNK2a (Q9HBH9 whole entry): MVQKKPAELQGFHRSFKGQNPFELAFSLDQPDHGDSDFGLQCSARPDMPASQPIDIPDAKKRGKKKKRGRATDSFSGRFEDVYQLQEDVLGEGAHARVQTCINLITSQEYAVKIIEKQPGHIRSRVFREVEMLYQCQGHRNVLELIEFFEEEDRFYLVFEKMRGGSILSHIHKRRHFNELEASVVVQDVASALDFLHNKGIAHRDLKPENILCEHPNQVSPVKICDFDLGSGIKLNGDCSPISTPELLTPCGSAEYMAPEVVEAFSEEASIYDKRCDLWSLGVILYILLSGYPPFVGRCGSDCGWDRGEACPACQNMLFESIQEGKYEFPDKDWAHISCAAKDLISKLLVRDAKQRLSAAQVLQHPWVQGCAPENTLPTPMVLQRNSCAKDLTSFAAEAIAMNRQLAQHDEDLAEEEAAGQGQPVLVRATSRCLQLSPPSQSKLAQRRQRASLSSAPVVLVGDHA

| Compound | IC50 [nM] |
| --- | --- |
| Cc1nnc(C(C)Oc2cc(F)ccc2Nc2ncnc3cc(N=S(C)(C)=O)cc(C)c23)o1 (stereo not drawn) [Example 3.041] | 33 |
| Cc1cc(N=S(C)(C)=O)cc2ncnc(Nc3ccc(F)cc3O[C@H](C)C(=O)N[C@H](C)C(F)(F)F)c12 [Example 3.051] | 3 |
| Cc1cc(C(Oc2cc(F)ccc2Nc2ncnc3cc(N=S(C)(C)=O)cc(C)c23)C(F)(F)F)on1 (stereo not drawn) [Example 1.010] | 17 |
| C[C@@H](Oc1cc(F)ccc1Nc1ncnc2cc(N=S(C)(=O)C3CCOCC3)cc(F)c12)C(=O)NCC(F)(F)F (stereo partly drawn) [Example 2.025] | 7 |
| COc1cc(N=S2(=O)CCCC2)cc2ncnc(Nc3ccc(F)cc3O[C@H](C)C(=O)NCC(F)(F)F)c12 [Example 3.011] | 2 |
| Cc1cc(N=S2(=O)CC(C)(C)C2)cc2ncnc(Nc3ccc(F)cc3O[C@H](C)C(=O)NCC(F)(F)F)c12 [Example 2.044] | 1 |
| Cc1cc(N=S2(=O)CCC2)cc2ncnc(Nc3ccc(F)cc3O[C@H](CO)CF)c12 [Example 2.036] | 4 |
| Cc1cc(N=S(C)(C)=O)cc2ncnc(Nc3cccnc3O[C@H](C)C(=O)NCC(F)(F)F)c12 [Example 2.013] | 2 |
| Cc1cc(N=S(C)(C)=O)cc2ncnc(Nc3ccc(F)cc3OCC#N)c12 [Example 3.005] | 1 |
| Cc1cc(N=S(C)(C)=O)cc2ncnc(Nc3ccc(F)cc3OC(C)C3CCCO3)c12 (stereo not drawn) [Example 3.010] | 23 |
| COC(=O)N1CC2(C1)CS(=O)(=Nc1cc(C)c3c(Nc4ccc(F)cc4O[C@H](C)C(=O)NCC(F)(F)F)ncnc3c1)C2 [Example 2.032] | 1 |
| Cc1cc(N=S2(=O)CCC(C)C2)cc2ncnc(Nc3ccc(F)cc3O[C@H](C)C(=O)NCC(F)(F)F)c12 (stereo partly drawn) [Example 2.035] | 2 |

More lines, now with the values ahead:

| IC50 [nM] | Compound |
| --- | --- |
| 2 | Cc1cc(N=S2(=O)CCC2)cc2ncnc(Nc3ccc(F)cc3O[C@H](C)C(=O)NC34CC(C3)C4)c12 [Example 4.082] |
| 1 | Cc1cc(N=S2(=O)CCC2)cc2ncnc(Nc3ccc(F)cc3O[C@H](C)C(=O)NCC#N)c12 [Example 4.103] |
| 4 | CC(C)NC(=O)[C@@H](C)Oc1cc(F)ccc1Nc1ncnc2cc(N=S(C)(C)=O)cc(Cl)c12 [Example 4.076] |
| 1 | C[C@@H](C#N)NC(=O)[C@@H](C)Oc1cc(F)ccc1Nc1ncnc2cc(N=S3(=O)CCC3)cc(Cl)c12 [Example 4.137] |
| 8 | CC(NC(=O)[C@@H](C)Oc1cc(F)ccc1Nc1ncnc2cc(N=S(C)(C)=O)cc(F)c12)C(F)F (stereo partly drawn) [Example 4.083] |
| 1 | C[C@@H](C#N)NC(=O)[C@@H](C)Oc1cc(Cl)ccc1Nc1ncnc2cc(N=S3(=O)CCCC3)cc(F)c12 [Example 4.093] |
| 2 | Cc1cc(N=S(C)(C)=O)cc2ncnc(Nc3ccc(F)cc3O[C@H](C)C(=O)NCC(F)(F)C(F)(F)F)c12 [Example 4.119] |
| 4 | CCOc1cc(N=S2(=O)CCC2)cc2ncnc(Nc3ccc(F)cc3O[C@H](C)C(=O)NCC(F)(F)F)c12 [Example 6.003] |
| 6 | Cc1cc(N=S2(=O)CCCC2)cc2ncnc(Nc3ccc(F)cc3O[C@H](C)C(=O)N3CC[S+]([O-])CC3)c12 [Example 4.004] |
| 2 | Cc1cc(N=S(C)(C)=O)cc2ncnc(Nc3ccc(Cl)cc3O[C@H](C)C(=O)NCC(F)F)c12 [Example 4.142] |
| 1 | Cc1cc(N=S2(=O)CCC2)cc2ncnc(Nc3ccc(Cl)cc3O[C@H](C)C(=O)NCC(F)(F)F)c12 [Example 4.122] |
| 1 | Cc1cc(N=S2(=O)CCC2)cc2ncnc(Nc3ccc(Cl)cc3O[C@H](C)C(=O)N[C@@H](C)C(F)(F)F)c12 [Example 4.079] |
| 2 | Cc1cc(N=S2(=O)CCC2)cc2ncnc(Nc3ccc(F)cc3O[C@H](C)C(=O)NC(C)C)c12 [Example 4.081] |
| 19 | Cc1cc(N=S(C)(C)=O)cc2ncnc(Nc3ccc(F)cc3O[C@H](C)C(=O)N3CCC3)c12 [Example 4.049] |
| 2 | Cc1cc(N=S(C)(C)=O)cc2ncnc(Nc3ccc(F)cc3O[C@H](C)C(=O)N[C@@H](C)C(F)(F)F)c12 [Example 4.127] |
